Experimental data: ChEMBL document CHEMBL5291721, “A preclinical secondary pharmacology resource illuminates target-adverse drug reaction associations of marketed drugs” (Nat Commun, 2023)

What was measured:
[1] = target: T1, Adenosine receptor A3 (Homo sapiens, UniProt P0DMS8)
T1 sequence (P0DMS8 whole entry): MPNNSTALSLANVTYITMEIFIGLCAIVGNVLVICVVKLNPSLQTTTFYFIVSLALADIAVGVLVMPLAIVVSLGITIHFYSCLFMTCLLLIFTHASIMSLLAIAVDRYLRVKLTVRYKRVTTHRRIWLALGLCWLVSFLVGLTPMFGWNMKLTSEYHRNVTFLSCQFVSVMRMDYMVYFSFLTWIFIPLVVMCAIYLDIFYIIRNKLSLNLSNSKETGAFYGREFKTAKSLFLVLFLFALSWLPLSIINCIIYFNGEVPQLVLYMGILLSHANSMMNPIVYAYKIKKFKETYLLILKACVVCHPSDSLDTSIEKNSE

[2] = target: T2, Thromboxane A2 receptor (Homo sapiens, UniProt P21731)
T2 sequence (P21731 whole entry): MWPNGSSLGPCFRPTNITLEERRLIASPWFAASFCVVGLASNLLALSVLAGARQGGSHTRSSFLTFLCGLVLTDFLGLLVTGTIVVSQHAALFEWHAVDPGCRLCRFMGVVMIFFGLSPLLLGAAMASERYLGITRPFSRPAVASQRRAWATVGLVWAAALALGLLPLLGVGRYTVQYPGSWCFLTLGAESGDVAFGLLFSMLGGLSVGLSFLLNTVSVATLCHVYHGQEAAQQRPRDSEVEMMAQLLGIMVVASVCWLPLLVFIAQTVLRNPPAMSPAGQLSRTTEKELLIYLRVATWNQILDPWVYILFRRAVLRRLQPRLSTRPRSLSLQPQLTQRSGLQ

[3] = target: Growth hormone secretagogue receptor type 1 (Homo sapiens, UniProt Q92847)
Growth hormone secretagogue receptor type 1, sequence (Q92847 whole entry): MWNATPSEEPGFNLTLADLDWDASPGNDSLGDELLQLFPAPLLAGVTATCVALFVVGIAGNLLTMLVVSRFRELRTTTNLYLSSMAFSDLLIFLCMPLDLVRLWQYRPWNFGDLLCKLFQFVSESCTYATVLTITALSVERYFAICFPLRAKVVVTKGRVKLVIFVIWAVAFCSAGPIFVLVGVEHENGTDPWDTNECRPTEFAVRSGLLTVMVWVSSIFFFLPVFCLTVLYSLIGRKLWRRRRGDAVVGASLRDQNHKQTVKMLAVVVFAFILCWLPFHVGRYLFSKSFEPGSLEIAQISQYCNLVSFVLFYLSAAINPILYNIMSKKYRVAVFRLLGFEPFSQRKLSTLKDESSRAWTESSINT

[4] = target: T3, Type-1 angiotensin II receptor (Homo sapiens, UniProt P30556)
T3 sequence (P30556 whole entry): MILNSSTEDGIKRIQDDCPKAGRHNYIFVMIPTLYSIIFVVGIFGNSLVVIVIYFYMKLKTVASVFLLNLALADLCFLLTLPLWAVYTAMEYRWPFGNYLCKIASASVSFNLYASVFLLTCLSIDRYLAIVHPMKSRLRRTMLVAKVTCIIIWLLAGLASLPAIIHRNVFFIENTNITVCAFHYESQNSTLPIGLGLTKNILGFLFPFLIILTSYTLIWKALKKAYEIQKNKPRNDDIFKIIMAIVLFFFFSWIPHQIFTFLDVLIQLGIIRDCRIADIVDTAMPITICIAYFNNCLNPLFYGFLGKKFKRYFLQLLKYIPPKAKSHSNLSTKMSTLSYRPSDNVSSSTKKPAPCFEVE

[5] = target: Beta-1 adrenergic receptor (Homo sapiens, UniProt P08588); assay type: functional
Beta-1 adrenergic receptor, sequence (P08588 whole entry): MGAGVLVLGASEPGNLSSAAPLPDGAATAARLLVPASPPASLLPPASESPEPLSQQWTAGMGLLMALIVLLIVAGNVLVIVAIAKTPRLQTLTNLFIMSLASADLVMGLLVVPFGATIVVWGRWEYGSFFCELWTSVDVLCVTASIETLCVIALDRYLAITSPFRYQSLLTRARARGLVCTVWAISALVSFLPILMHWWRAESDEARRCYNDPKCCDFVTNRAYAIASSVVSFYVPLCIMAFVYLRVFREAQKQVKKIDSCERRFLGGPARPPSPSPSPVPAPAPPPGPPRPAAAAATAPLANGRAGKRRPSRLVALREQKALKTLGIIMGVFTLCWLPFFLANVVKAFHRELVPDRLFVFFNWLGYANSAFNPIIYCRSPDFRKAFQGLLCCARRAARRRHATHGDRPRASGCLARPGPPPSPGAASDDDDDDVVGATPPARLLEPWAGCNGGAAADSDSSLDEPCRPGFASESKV

[6] = target: Motilin receptor (Homo sapiens, UniProt O43193)
Motilin receptor, sequence (O43193 whole entry): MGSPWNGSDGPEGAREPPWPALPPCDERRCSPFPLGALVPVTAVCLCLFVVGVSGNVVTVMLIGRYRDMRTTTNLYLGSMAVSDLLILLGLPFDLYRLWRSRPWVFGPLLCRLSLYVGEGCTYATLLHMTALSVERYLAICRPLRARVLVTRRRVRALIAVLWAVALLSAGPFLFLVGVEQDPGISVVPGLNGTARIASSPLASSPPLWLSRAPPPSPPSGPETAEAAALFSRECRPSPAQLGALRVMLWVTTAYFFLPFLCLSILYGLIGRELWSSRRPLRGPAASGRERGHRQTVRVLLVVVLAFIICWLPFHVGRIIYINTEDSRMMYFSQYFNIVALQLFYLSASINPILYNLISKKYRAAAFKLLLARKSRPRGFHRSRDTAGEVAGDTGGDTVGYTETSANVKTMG

[7] = target: T1, Adenosine receptor A3; remark: listed apart in the source
[8] = target: Gamma-aminobutyric acid receptor subunit alpha-1 (Rattus norvegicus, UniProt P62813)
Gamma-aminobutyric acid receptor subunit alpha-1, sequence (P62813 whole entry): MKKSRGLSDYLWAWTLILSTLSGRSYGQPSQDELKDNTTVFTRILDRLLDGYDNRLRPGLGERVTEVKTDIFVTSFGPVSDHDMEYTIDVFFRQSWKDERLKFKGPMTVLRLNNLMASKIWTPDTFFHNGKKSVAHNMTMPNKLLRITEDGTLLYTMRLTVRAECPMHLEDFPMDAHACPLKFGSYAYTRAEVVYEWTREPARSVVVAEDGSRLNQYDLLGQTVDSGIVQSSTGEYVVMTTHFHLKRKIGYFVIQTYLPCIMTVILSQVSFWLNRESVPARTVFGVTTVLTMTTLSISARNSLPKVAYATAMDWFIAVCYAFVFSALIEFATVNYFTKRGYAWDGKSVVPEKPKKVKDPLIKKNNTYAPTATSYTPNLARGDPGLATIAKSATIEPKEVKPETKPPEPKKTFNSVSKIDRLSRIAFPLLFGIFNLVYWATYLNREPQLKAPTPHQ

[9] = target: T4, Amine oxidase [flavin-containing] A (Homo sapiens, UniProt P21397); assay type: functional
T4 sequence (P21397 whole entry): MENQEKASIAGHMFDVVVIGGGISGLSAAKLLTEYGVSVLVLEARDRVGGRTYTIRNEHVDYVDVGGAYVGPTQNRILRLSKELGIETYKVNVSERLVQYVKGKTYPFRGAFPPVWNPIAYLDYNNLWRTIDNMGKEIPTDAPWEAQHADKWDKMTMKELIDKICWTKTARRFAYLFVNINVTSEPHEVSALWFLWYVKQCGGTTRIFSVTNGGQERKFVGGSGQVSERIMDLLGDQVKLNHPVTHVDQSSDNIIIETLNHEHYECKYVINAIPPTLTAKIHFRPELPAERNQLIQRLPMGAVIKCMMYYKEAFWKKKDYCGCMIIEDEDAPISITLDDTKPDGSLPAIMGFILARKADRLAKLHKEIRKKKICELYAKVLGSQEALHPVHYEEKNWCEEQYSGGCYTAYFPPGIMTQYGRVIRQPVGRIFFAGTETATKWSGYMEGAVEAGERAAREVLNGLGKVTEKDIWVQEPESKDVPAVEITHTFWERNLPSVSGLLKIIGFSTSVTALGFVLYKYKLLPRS

[10] = target: T5, 5-hydroxytryptamine receptor 1A (Homo sapiens, UniProt P08908); assay type: functional, cell-based
T5 sequence (P08908 whole entry): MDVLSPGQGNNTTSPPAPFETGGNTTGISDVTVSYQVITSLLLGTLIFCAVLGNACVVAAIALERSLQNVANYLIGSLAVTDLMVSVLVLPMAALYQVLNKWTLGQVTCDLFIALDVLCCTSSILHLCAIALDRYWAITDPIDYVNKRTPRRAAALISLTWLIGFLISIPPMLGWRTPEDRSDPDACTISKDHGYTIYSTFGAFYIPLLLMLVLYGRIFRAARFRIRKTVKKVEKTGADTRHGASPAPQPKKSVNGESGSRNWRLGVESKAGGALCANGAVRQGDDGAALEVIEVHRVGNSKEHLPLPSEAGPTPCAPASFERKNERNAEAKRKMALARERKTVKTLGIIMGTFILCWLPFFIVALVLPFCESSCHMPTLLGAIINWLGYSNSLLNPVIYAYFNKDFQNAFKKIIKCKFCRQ

[11] = target: Adenosine receptor A2a (Homo sapiens, UniProt P29274)
Adenosine receptor A2a, sequence (P29274 whole entry): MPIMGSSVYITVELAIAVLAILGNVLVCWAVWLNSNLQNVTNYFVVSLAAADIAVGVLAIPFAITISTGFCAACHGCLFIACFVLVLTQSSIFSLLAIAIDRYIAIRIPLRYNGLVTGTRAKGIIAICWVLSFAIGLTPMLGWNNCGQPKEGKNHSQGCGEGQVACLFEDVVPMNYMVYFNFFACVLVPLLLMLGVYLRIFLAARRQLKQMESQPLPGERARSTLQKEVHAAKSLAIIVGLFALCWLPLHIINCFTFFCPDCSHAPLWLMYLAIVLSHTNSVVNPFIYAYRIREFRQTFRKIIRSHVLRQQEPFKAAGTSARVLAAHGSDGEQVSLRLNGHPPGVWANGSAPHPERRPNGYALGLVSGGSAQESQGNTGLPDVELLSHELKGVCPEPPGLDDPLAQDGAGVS

[12] = target: T6, 5-hydroxytryptamine receptor 2C (Homo sapiens, UniProt P28335)
T6 sequence (P28335 whole entry): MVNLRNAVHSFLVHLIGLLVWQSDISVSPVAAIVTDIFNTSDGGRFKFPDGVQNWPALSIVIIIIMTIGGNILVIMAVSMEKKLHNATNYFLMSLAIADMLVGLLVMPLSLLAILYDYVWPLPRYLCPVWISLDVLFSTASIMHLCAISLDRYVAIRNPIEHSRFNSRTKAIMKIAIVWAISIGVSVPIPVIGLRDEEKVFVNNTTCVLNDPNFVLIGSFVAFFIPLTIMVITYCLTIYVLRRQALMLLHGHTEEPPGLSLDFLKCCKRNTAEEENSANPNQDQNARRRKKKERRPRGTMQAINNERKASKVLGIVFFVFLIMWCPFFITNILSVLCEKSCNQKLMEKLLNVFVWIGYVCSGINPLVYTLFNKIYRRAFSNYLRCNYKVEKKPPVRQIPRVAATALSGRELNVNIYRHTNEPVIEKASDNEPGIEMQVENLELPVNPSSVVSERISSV

[13] = target: Delta-type opioid receptor (Homo sapiens, UniProt P41143)
Delta-type opioid receptor, sequence (P41143 whole entry): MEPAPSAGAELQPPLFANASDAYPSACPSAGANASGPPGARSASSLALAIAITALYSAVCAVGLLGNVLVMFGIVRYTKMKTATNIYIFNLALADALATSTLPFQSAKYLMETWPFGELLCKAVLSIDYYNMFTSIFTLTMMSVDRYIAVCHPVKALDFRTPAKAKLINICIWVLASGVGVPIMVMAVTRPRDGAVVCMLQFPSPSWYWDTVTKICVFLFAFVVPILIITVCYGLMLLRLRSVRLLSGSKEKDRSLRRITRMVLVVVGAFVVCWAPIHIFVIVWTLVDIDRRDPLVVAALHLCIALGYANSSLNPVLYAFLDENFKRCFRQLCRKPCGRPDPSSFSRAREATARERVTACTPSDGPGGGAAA

[14] = target: Kappa-type opioid receptor (Homo sapiens, UniProt P41145)
Kappa-type opioid receptor, sequence (P41145 whole entry): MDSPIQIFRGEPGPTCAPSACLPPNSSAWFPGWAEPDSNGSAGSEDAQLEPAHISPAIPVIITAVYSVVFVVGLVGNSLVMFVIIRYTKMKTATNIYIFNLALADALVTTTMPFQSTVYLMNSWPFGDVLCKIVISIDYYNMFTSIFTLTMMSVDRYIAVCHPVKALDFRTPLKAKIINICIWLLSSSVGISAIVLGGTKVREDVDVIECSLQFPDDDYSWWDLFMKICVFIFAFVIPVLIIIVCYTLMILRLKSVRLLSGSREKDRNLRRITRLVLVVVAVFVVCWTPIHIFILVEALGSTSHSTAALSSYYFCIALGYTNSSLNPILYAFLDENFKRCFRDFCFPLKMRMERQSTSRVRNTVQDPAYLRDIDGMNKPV
Also: assay procedure not described here.

| Structure (SMILES) | AC50 [1] [µM] | AC50 [2] [µM] | AC50 [3] [µM] | AC50 [4] [µM] | AC50 [5] [µM] | AC50 [6] [µM] | AC50 [7] [µM] | AC50 [8] [µM] | AC50 [9] [µM] | AC50 [10] [µM] | AC50 [11] [µM] | AC50 [12] [µM] | AC50 [13] [µM] | AC50 [14] [µM] |
| --- | --- | --- | --- | --- | --- | --- | --- | --- | --- | --- | --- | --- | --- | --- |
| CC[C@H]1OC(=O)[C@H](C)[C@@H](O[C@H]2C[C@@](C)(OC)[C@@H](O)[C@H](C)O2)[C@H](C)[C@@H](O[C@@H]2O[C@H](C)C[C@H](N(C)C)[C@H]2O)[C@](C)(OC)C[C@@H](C)C(=O)[C@H](C)[C@@H](O)[C@]1(C)O [CLARITHROMYCIN] | > 30 | > 30 | > 30 | > 30 | > 30 | > 30 | > 30 | > 30 | > 30 | > 30 | > 30 |  |  |  |
| CCn1cc(C(=O)O)c(=O)c2cc(F)c(N3CCNCC3)nc21 [ENOXACIN] | > 30 | 6.06 | > 30 | > 30 | > 10 | > 10 | > 30 | > 30 | > 10 | > 10 | > 30 | > 10 | > 10 | > 10 |
